{"source": "paper PMC9603010", "about": "(ACS Bio & Med Chem Au, 2022)", "key": {"3CL^pro M165A": {"target": "3CL^pro M165A (Severe acute respiratory syndrome coronavirus 2, UniProt P0DTD1, M3428A)", "assay_type": "cell-based, SARS-CoV-2"}, "3CL^pro Q299A": {"target": "3CL^pro Q299A (Severe acute respiratory syndrome coronavirus 2, UniProt P0DTD1, Q3562A)", "assay_type": "cell-based, SARS-CoV-2"}}}
{"smiles": "C=C1C(=O)O[C@H]2[C@H]1CC/C(C)=C/CC[C@@]1(C)O[C@@H]21", "note": "[parthenolide]", "values": [{"measurement": "inhibition in M165A compared to WT", "setting": "3CL^pro M165A", "result": "reduced"}, {"measurement": "inhibition in Q299A compared to WT", "setting": "3CL^pro Q299A", "result": "reduced"}]}
